What all share (assay): growth of human tumour cells (NCI), 48 h
The test system of assay [1] is SN12C.
Assay [2] deals with HL-60.
The test system of assay [3] is SNB-75.
The test system of assay [4] is T47D.
The subject of assay [5] is RPMI-8226.
Assay [6] relates to COLO 205.
The test system of assay [7] is OVCAR-3.
In assay [8] the test system is SF-295.
In assay [9] the test system is HCT-15.
Assay [10] relates to UACC-62.
Assay [11] concerns SK-OV-3.
In assay [12] the test system is Malme-3M.
The test system of assay [13] is 786-0.
Assay [14] deals with TK-10.
For assay [15], the system named is PC-3.
Assay [16] deals with HOP-92.
The subject of assay [17] is SNB-19.
For assay [18], the system named is NCI-H23.
Assay [19] deals with SR.
The subject of assay [20] is RXF 393.

Where “and” joins values, the source holds several entries; their conditions need not be identical. Equal entries are not always repeated.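 Following 48 hours of exposure in 96-well plates, responses at five concentrations were used to interpolate endpoints linearly. GI50: concentration for 50% inhibition of growth.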 Calls of active or inactive are those of the source. Rule as the data show it: active = GI50 up to about 1.1 µM and inactive = higher.

Regarding `O=C(/C=C(\S/C=C(/c1ccccc1)N1CCn2c(C(=O)c3ccccc3)c(C(=O)c3ccccc3)c(C(=O)c3ccccc3)c21)C(=O)c1ccccc1)c1ccccc1`, the GI50 in assay [1], in [2], in assay [3], in assay [4], in assay [5] and in assay [6] was > 10 µM (inactive) throughout. Further, the GI50 in assay [7] was > 10 µM (inactive); in assay [8], > 10 µM (inactive); in [9] it was more than 10 µM; in assay [10] it was > 10 µM (inactive); in assay [11], > 10 µM (inactive); in assay [12], > 10 µM (inactive). For the same molecule, the GI50 in assay [13], in [14], in assay [15], in assay [16], in assay [17] and in assay [18] was > 10 µM (inactive) each time.

Consider `C[n+]1c2ccc(Cl)cc2nc2cc(-c3ccccc3)ccc21`, for which the GI50 in assay [1] was 4.24 µM (inactive); in assay [2] it was 3.06 µM (inactive); in assay [3] it was 24.7 µM (inactive); in [5], 1.93 µM (inactive); in [6] it was 3.58 µM (inactive); in [7], 2.03 µM (inactive). Also, the GI50 in assay [8] is 1.74 µM (inactive); in [9], 7.76 µM; in assay [10], 18.4 µM (inactive); in assay [12], 19.4 µM (inactive); in assay [19] it was 2.67 µM (inactive); in [13], 35.3 µM (inactive). Besides, the GI50 in assay [14] is 22.8 µM (inactive); in assay [20] it was 26.1 µM (inactive); in assay [15], 10.5 µM (inactive); in assay [17] it was 5.12 µM (inactive); in assay [18] it was 5.41 µM (inactive).

Turning to `O=c1cnc2cc3ccccc3cc2[nH]1`, the GI50 in assay [1] was > 100 µM (inactive); in assay [2], > 100 µM (inactive); in assay [3] it was 37.8 µM (inactive); in [5] it was > 100 µM (inactive); in assay [6], > 100 µM (inactive); in assay [7] it was > 100 µM (inactive). Also, the GI50 in assay [8] was > 100 µM (inactive); in [9], more than 100 µM; in assay [11], > 100 µM (inactive); in assay [12], > 100 µM (inactive); in assay [19] it was > 100 µM (inactive); in assay [13], > 100 µM (inactive). The GI50 in [14] is > 100 µM (inactive); in assay [20], > 100 µM (inactive); in assay [15], > 100 µM (inactive); in [16] it was > 100 µM (inactive); in assay [17] it was 71.6 µM (inactive); in [18], > 100 µM (inactive).

As to `C[C@]12CCC(=O)C=C1CC[C@@H]1C2CC[C@@]2(C)C1CC[C@@H]2OC(=O)C12OC1CCC2=O` (stereo not given in full), the GI50 in assay [1] is 23.2 µM (inactive); in [2] it was 6.9 µM (inactive); in [3] it was 16.7 µM (inactive); in assay [5] it was 20.9 µM (inactive); in assay [6] it was 17.9 µM (inactive); in [7], 18.9 µM (inactive). Besides, the GI50 is 16.7 µM (inactive) in assay [8]; 17 µM in assay [9]; 18.3 µM (inactive) in [10]; 41.7 µM (inactive) in [11]; 19.1 µM (inactive) in assay [12]; 17.1 µM (inactive) in [19]. Besides, the GI50 in [13] is 16.5 µM (inactive); in [14], 20 µM (inactive); in [20], 5.16 µM (inactive); in assay [16], 19.8 µM (inactive); in [17] it was 19.6 µM (inactive); in assay [18], 18.8 µM (inactive).

Turning to `CC(=O)NC1C(CO)O[C@@H]2OC(C)(C)O[C@H]12` (stereo not given in full), the GI50 in [1], in assay [2], in assay [3], in assay [5], in [7] and in [8] was > 100 µM (inactive) in each case. The GI50 in assay [9] is more than 100 µM; in assay [10] it was > 100 µM (inactive); in [12], > 100 µM (inactive); in [13], > 100 µM (inactive); in [14], > 100 µM (inactive); in assay [15] it was > 100 µM (inactive). The GI50 in assay [16], in assay [17] and in [18] was > 100 µM (inactive) throughout.

In the case of `CC(C)(C)OC/C=C(\Br)CO`, the GI50 in assay [1], in [3], in assay [4], in assay [5], in assay [6] and in assay [7] was > 100 µM (inactive) in each case. Moreover, the GI50 in assay [8] was > 100 µM (inactive); in [9], more than 100 µM; in [10], > 100 µM (inactive); in [11], > 100 µM (inactive); in [12], > 100 µM (inactive); in assay [13] it was > 100 µM (inactive). The GI50 in assay [20], in assay [15], in assay [17] and in assay [18] was > 100 µM (inactive) in each case.

For the molecule `CN(C)CCCNC(=O)c1cc(NC(=O)c2cc(NC(=O)[C@@H]3C[C@H]3C(=O)Nc3cc(C(=O)Nc4cc(C(=O)NCCCN(C)C)n(C)c4)n(C)c3)cn2C)cn1C`, the GI50 in assay [1], in assay [2], in assay [3], in assay [5], in assay [6] and in assay [8] was > 100 µM (inactive) each time. The GI50 in assay [12], in assay [19], in [13], in assay [15], in assay [16] and in assay [17] was > 100 µM (inactive) in each case. Also, in [18], the GI50 is > 100 µM (inactive).

On to `CCOC(=O)c1cc(NC(=O)N(CCC#N)CCN(C(=O)N[C@@H](Cc2ccccc2)C(=O)N[C@@H](CC(C)C)C(=O)NC)c2ccccc2)ccc1OC`, for which the GI50 is 33.7 µM (inactive) in [1]; 45 µM (inactive) in assay [3]; 28.1 µM (inactive) in assay [4]; 16.3 µM (inactive) in assay [5]; > 100 µM (inactive) in assay [6]; 40.9 µM (inactive) in assay [7]. The GI50 in assay [8] is 34.6 µM (inactive); in assay [9], 57.4 µM; in [10], 4.76 µM (inactive); in assay [11], 70 µM (inactive); in [12], 29.4 µM (inactive); in assay [13], 45.3 µM (inactive). Further, the GI50 in assay [14] was 46.5 µM (inactive); in assay [20], 23.1 µM (inactive); in [15], 49.4 µM (inactive); in [16] it was 34.3 µM (inactive); in assay [17], 79.4 µM (inactive); in assay [18] it was 37.3 µM (inactive).

Consider `Cc1ccccc1-c1nc2c(N)nc(N)nc2nc1N`, for which the GI50 in assay [1] is 6.84 µM (inactive); in assay [2], > 100 µM (inactive); in [3], 22.3 µM (inactive); in [5], > 100 µM (inactive); in assay [6], 25.5 µM (inactive); in assay [7], > 100 µM (inactive). In addition, the GI50 in assay [8] was 12.8 µM (inactive); in [9], 4.15 µM; in [10], 4.91 µM (inactive); in assay [11], > 100 µM (inactive); in assay [19], 62.7 µM (inactive); in assay [13], 7.23 µM (inactive). Besides, the GI50 was > 100 µM (inactive) in assay [14], 4.46 µM (inactive) in assay [15], 44.3 µM (inactive) in assay [17] and 4.95 µM (inactive) in [18].

As for `CC(C)[C@@H]1NC(=O)[C@H]2N=C(O[C@@H]2C)[C@@H]2CCCN2C(=O)[C@H](Cc2ccccc2)NC(=O)[C@@H]2CSC(=N2)[C@@H](Cc2ccccc2)NC(=O)[C@@H]2CSC1=N2`, the GI50 in assay [1] was > 50 µM (inactive); in assay [2] it was 7.46 µM (inactive); in assay [3], 0.216 µM (active); in [4], > 50 µM (inactive); in assay [5], 9.29 µM (inactive); in assay [6] it was 24.7 µM (inactive). Also, the GI50 was 47 µM (inactive) in assay [7]; 34.6 µM (inactive) in assay [8]; 33.2 µM in assay [9]; > 50 µM (inactive) in [10]; > 50 µM (inactive) in assay [11]; > 50 µM (inactive) in assay [12]. The GI50 in assay [13] was > 50 µM (inactive); in [14], > 50 µM (inactive); in [20], 39 µM (inactive); in [15], 21.8 µM (inactive); in [17], > 50 µM (inactive); in [18] it was > 50 µM (inactive).

Consider `COC(=O)[C@H](Cc1ccccc1)NC(=O)[C@H](Cc1ccccc1)NC(=O)CN1C(=O)[C@@H]2C3C=CC(C3)[C@@H]2C1=O`, for which the GI50 is 18.2 µM (inactive) and 16.7 µM (inactive) in assay [1]; 11 µM (inactive) in assay [2]; 18.7 µM (inactive) and 18 µM (inactive) in assay [3]; 21.9 µM (inactive) and 21.7 µM (inactive) in assay [4]; 21.6 µM (inactive) and 14.9 µM (inactive) in assay [5]; 17.1 µM (inactive) and 15.8 µM (inactive) in [6]. Besides, the GI50 was 16.6 µM (inactive) and 18 µM (inactive) in assay [7]; 18.5 µM (inactive) and 19.2 µM (inactive) in [8]; 15.6 µM and 17.4 µM in assay [9]; 16.4 µM (inactive) and 16.6 µM (inactive) in assay [10]; 16.7 µM (inactive) in assay [11]; 15.5 µM (inactive) and 14.2 µM (inactive) in assay [13]. In addition, the GI50 is 18.9 µM (inactive) and 17.5 µM (inactive) in assay [14]; 20.5 µM (inactive) and 18.4 µM (inactive) in [20]; 15.6 µM (inactive) and 16.4 µM (inactive) in [15]; 18.3 µM (inactive) and 20.6 µM (inactive) in assay [16]; 21 µM (inactive) and 20.8 µM (inactive) in assay [17]; 17.6 µM (inactive) and 17.2 µM (inactive) in assay [18].
